Data reported in patent US5110976A, “Insecticidal composition comprising more than one active ingredient” (priority 1985, dated 1992).

How the values were obtained:
[1] = system: Aphidinus matricariae; assay: Residual contact test on adults (Table 25); type: in vivo, adult females
Procedure: Residual contact test on adults of Aphidinus matricariae. Adults of A. matricariae are exposed to residues of the active ingredients freshly applied on glass plates forming cages, then the survivors are counted.
Treatment: test product and control treated with water.
Replicates: at least 3. Plot size (net): 1 cage.
Parasites of known age (24 hours) are used. […]
10 females of A. matricariae are introduced into each cage and supplied with honey as food. The number of females surviving exposure is determined after 1, 5 and 24 hours, in independent runs. Total number of survivors is calculate for each cage.

[2] = system: Leptinotarsa decemlineara larvae; assay: Paralysis of larvae on sprayed tomato plants (Table 23); type: in vivo, L3 stage larvae; settings: 6 hours
Procedure: Tomato plants pre-cultivated in pots are sprayed with a suspension of the active ingredient formed with a mixture of acetone and water. The treated plants are placed into isolators and infected with L3 stage Leptinotarsa decemlineara larvae. The percental ratio of paralyzed larvae which fall down from the plants is determined after 6 hours.

[3] = system: Acanthoscelides obtectus; assay: 5 EC formulations sprayed on glass plates (Table 21); type: in vivo, bean weevil (Acanthoscelides obtectus), imagos; settings: 5 EC formulation, 24 hours
Procedure: (§1) The 5 EC formulations prepared according to Example 42 are diluted 50x, 100x, 200x, 400x, 800x and 1600x with water and 0.5 ml doses are sprayed onto glass plates. After drying 10 L. decemlineata imagos are placed on each glass plate and the insects are covered with Petri-dishes. The tests are carried out by using 6 doses and 3 parallels for each dose. The killed insects are counted after 48 hours.
Glass plates are sprayed with 5 EC formulations prepared according to Example 42 in an analogous manner to Example 52. After drying 10 bean weevil (Acanthoscelides obtectus) imagos are placed on each plate and the insects are covered with Petri-dishes. The killed insects are counted after 24 hours. The test is carried out with 6 doses by using 3 parallels for each dose.

[4] = system: Colorado potato beetle; assay: Plot field test on Colorado potato beetle (Table 24); type: in vivo, adults; settings: 10 g active ingredients/ha
Procedure: The treatments are performed on a 25 m^2 plot strongly infected with Colorado potato beetle. 10 plants per plot are specially marked on which the Colorado potato beetles were counted previously. (During assessment of the number of pests only adults of the second Summer generation are taken into consideration, because at the point of time of the test the ratio of larvae of stages L3 and L4 is negligible). Treatment is accomplished on 25 M^2 plots at a dose of 10 g of active ingredients/ha with aqueous suspensions of the formulations according to Example 37 and three parallels are used. The test is evaluated by counting the leave insects on the marked plants. The average values of three parallel tests are disclosed in Table 24.

[5] = system: L. decemlineata; assay: 5 EC formulations sprayed on glass plates (Table 20); type: in vivo, imagos; settings: 5 EC formulation, 48 hours
Procedure: as §1

[6] = Acute toxicity on rats and selectivity index; settings: rat, in vivo; for LD50: po, rats, p.o., read-out: approximate LD50 toxicity; for selectivity ratio: quotient of approximate LD50 values on rats and house fly
Excerpt: The said selectivity index of the enantiomer-pair Ia amounts to 50/0.45=111.
In addition to the synergistic effect the composition of the present invention has a number of further advantages too and for this reason it is an outstanding product. It is very important that the compositions of the present invention are less toxical towards mammals than the hitherto known compositions of similar efficiency. […] The said selectivity index of Ia amounts to 50/0.45=111.

[7] = system: Lucilia sericata; assay: Impregnated filter paper disc contact test, mortality (Table 1); type: in vivo, sheep maggot fly (Lucilia sericata), imago; settings: for mortality at 20 µg/disc / mortality at 70 µg/disc / mortality at 220 µg/disc / mortality at 670 µg/disc / mortality at 2000 µg/disc / mortality at 6000 µg/disc: Lucilia sericata, 24 hours, Abbot corrected; for mortality at 20 µg/disc: 0.02 mg/disc; for mortality at 70 µg/disc: 0.07 mg/disc; for mortality at 220 µg/disc: 0.22 mg/disc; for mortality at 670 µg/disc: 0.67 mg/disc; for mortality at 2000 µg/disc: 2.0 mg/disc; for mortality at 6000 µg/disc: 6.0 mg/disc
Procedure: (§2) The stereoisomers are dissolved in a 1:2 mixture of mineral oil and acetone and filter paper discs (Whatman No. 1., diameter 9 cm) are impregnated with the corresponding dosage of the solution of the active ingredient. The acetone is allowed to evaporate and the insects are examined on filter paper discs placed into Petri-dishes. Three parallels are used for each dose and 15 animals are placed in each Petri-dish. Mortality rate is determined after 24 hours. The corrected mortality % data are calculated by means of the Abbot formula.

[8] = system: tribolium confusum; assay: as above; type: in vivo, flour-beetle (tribolium confusum), imago; settings: for mortality at 20 µg/disc / mortality at 70 µg/disc / mortality at 220 µg/disc / mortality at 670 µg/disc / mortality at 2000 µg/disc / mortality at 6000 µg/disc: Tribolium confusum, 24 hours, Abbot corrected; for mortality at 20 µg/disc: 0.02 mg/disc; for mortality at 70 µg/disc: 0.07 mg/disc; for mortality at 220 µg/disc: 0.22 mg/disc; for mortality at 670 µg/disc: 0.67 mg/disc; for mortality at 2000 µg/disc: 2.0 mg/disc; for mortality at 6000 µg/disc: 6.0 mg/disc
Procedure: as §2

[9] = system: A. matricariae; assay: Residual contact test on adults (Table 4); type: in vivo, Aphidinus matricariae, adult females
Procedure: Adults of A. matricariae are exposed to residues of the active ingredients freshly applied on glass plates forming cages then the survivors are counted.
Treatments: test products(s) and control treated with water.
Replicates: at least 3. Plot size (net) 1 cage.
Parasites of known age 24 hours are used.
The products are applied at 5-1 ppm concentration, to each of the glass plates.
10 females of A. matricariae are introduced into each cage and supplied with honey as food. The number of females surviving exposure is determined after 1.5 and 24 hours, in independent runs. Total number of survivors is calculated for each cage.

[10] = system: Acanthoscelides obtectus; assay: Impregnated filter paper disc contact test, mortality (Table 1); type: in vivo, bean weevil (Acanthoscelides obtectus), imago; settings: for mortality at 20 µg/disc / mortality at 70 µg/disc / mortality at 220 µg/disc / mortality at 670 µg/disc / mortality at 2000 µg/disc / mortality at 6000 µg/disc: Acanthoscelides obtectus, 24 hours, Abbot corrected; for mortality at 20 µg/disc: 0.02 mg/disc; for mortality at 70 µg/disc: 0.07 mg/disc; for mortality at 220 µg/disc: 0.22 mg/disc; for mortality at 670 µg/disc: 0.67 mg/disc; for mortality at 2000 µg/disc: 2.0 mg/disc; for mortality at 6000 µg/disc: 6.0 mg/disc
Procedure: as §2

[11] = 0 days after treatment (control 211)
[12] = 1 day after treatment (control 206)
[13] = 3 days after treatment (control 179)
[14] = 9 days after treatment (control 183)

CC1(C)C(C=C(Cl)Cl)C1C(=O)OC(C#N)c1cccc(Oc2ccccc2)c1 (stereo not drawn) [Ia:Ib = 4:6]
Mortality % ([1]; 1 ppm, 1h): 50% | Mortality % ([1]; 1 ppm, 5h): 90% | Mortality % ([1]; 1 ppm, 24h): 63% | Mortality % ([1]; 5 ppm, 1h): 100% | % ratio of paralyzed larvae ([2]; 8 ppm): 60% | % ratio of paralyzed larvae ([2]; 40 ppm): 75% | % ratio of paralyzed larvae ([2]; 200 ppm): 100% | % ratio of paralyzed larvae ([2]; 1000 ppm): 100% | Mortality % ([3]; dilution 50x, 1440 min): 70% | Mortality % ([3]; dilution 100x, 1440 min): 53% | Mortality % ([3]; dilution 200x, 1440 min): 37% | Mortality % ([3]; dilution 400x, 1440 min): 30% | Mortality % ([3]; dilution 800x, 1440 min): 17% | Mortality % ([3]; dilution 1600x, 1440 min): 10% | Average number of live insects/10 plants [4, 11]: 213 | Average number of live insects/10 plants [4, 12]: 8 | Average number of live insects/10 plants [4, 13]: 4 | Average number of live insects/10 plants [4, 14]: 22 | Mortality % ([5]; dilution 50x, 2880 min): 93% | Mortality % ([5]; dilution 100x, 2880 min): 80% | Mortality % ([5]; dilution 200x, 2880 min): 73% | Mortality % ([5]; dilution 400x, 2880 min): 53% | Mortality % ([5]; dilution 800x, 2880 min): 33% | Mortality % ([5]; dilution 1600x): 0%

CC1(C)[C@H](C(=O)O[C@H](C#N)c2cccc(Oc3ccccc3)c2)[C@@H]1C=C(Cl)Cl (relative stereo) [Ia]
LD50 [6]: ~50 mg/kg | selectivity ratio [6]: 111 | Mortality % ([1]; 1 ppm, 1h): 100% | Mortality % ([1]; 1 ppm, 5h): 100% | Mortality % ([1]; 1 ppm, 24h): 96% | Mortality % ([1]; 5 ppm, 1h): 100% | % ratio of paralyzed larvae ([2]; 8 ppm): 18% | % ratio of paralyzed larvae ([2]; 40 ppm): 46% | % ratio of paralyzed larvae ([2]; 200 ppm): 100% | % ratio of paralyzed larvae ([2]; 1000 ppm): 100% | Mortality % ([3]; dilution 50x): 70% | Mortality % ([3]; dilution 100x): 50% | Mortality % ([3]; dilution 200x): 33% | Mortality % ([3]; dilution 400x): 27% | Mortality % ([3]; dilution 800x): 13% | Mortality % ([3]; dilution 1600x): 0% | mortality at 20 µg/disc [7]: 0% | mortality at 70 µg/disc [7]: 30% | mortality at 220 µg/disc [7]: 29% | mortality at 670 µg/disc [7]: 57% | mortality at 2000 µg/disc [7]: 60% | mortality at 6000 µg/disc [7]: 65% | mortality at 20 µg/disc [8]: 0% | mortality at 70 µg/disc [8]: 18% | mortality at 220 µg/disc [8]: 51% | mortality at 670 µg/disc [8]: 100% | mortality at 2000 µg/disc [8]: 100% | mortality at 6000 µg/disc [8]: 100% | Average number of live insects/10 plants [4, 11]: 171 | Average number of live insects/10 plants [4, 12]: 11 | Average number of live insects/10 plants [4, 13]: 9 | Average number of live insects/10 plants [4, 14]: 25 | Mortality % ([9]; 1 ppm, 1h): 100% | Mortality % ([9]; 1 ppm, 5h): 100% | Mortality % ([9]; 1 ppm, 24h): 96% | Mortality % ([9]; 5 ppm, 1h): 100% | Mortality % ([5]; dilution 50x): 97% | Mortality % ([5]; dilution 100x): 87% | Mortality % ([5]; dilution 200x): 63% | Mortality % ([5]; dilution 400x): 53% | Mortality % ([5]; dilution 800x): 27% | Mortality % ([5]; dilution 1600x): 0% | mortality at 20 µg/disc [10]: 10% | mortality at 70 µg/disc [10]: 37% | mortality at 220 µg/disc [10]: 63% | mortality at 670 µg/disc [10]: 100% | mortality at 2000 µg/disc [10]: 100% | mortality at 6000 µg/disc [10]: 100%

CC1(C)[C@H](C=C(Cl)Cl)[C@H]1C(=O)O[C@H](C#N)c1cccc(Oc2ccccc2)c1 (relative stereo) [Ib]
LD50 [6]: ~5000 mg/kg | selectivity ratio [6]: 7800 | comparative activity ([7]; Ib versus Ia): more active than enantiomer-pair Ia | mortality at 20 µg/disc [7]: 22% | mortality at 70 µg/disc [7]: 55% | mortality at 220 µg/disc [7]: 70% | mortality at 670 µg/disc [7]: 75% | mortality at 2000 µg/disc [7]: 100% | mortality at 6000 µg/disc [7]: 100% | comparative activity ([8]; Ib versus Ia): more active than enantiomer-pair Ia | mortality at 20 µg/disc [8]: 14% | mortality at 70 µg/disc [8]: 73% | mortality at 220 µg/disc [8]: 100% | mortality at 670 µg/disc [8]: 100% | mortality at 2000 µg/disc [8]: 100% | mortality at 6000 µg/disc [8]: 100% | Mortality % ([9]; 1 ppm, 1h): 0% | Mortality % ([9]; 1 ppm, 5h): 75% | Mortality % ([9]; 1 ppm, 24h): 88% | Mortality % ([9]; 5 ppm, 1h): 100% | mortality at 20 µg/disc [10]: 32% | mortality at 70 µg/disc [10]: 55% | mortality at 220 µg/disc [10]: 87% | mortality at 670 µg/disc [10]: 100% | mortality at 2000 µg/disc [10]: 100% | mortality at 6000 µg/disc [10]: 100% | comparative activity ([10]; Ib versus Ia): more active than enantiomer-pair Ia
